Values joined by “and” are separate entries in the source; they are usually repeats but may differ in a detail not shown here. Equal values may be shown once. Toxic doses and inconclusive results are not listed. How the source made its calls: active means survival T/C of 150% or more; inactive means T/C below 125% in these data.
Tested on: CD2F1 mice, L1210 leukemia ip, survival T/C
Assay: NCI In Vivo Anticancer Drug Screen. Data for tumor model L1210 Leukemia (intraperitoneal) in CD2F1 (CDF1) mice
Conditions: higher = longer survival
Outline: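 Each value reflects a quotient of treated over vehicle control outcomes in mice with a transplanted tumor.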

[1] = endpoint: mean survival time, dose: 100.0 mg/kg/injection, schedule: Q04DX003 (ip), vehicle: saline with Tween-80
[2] = endpoint: mean survival time, dose: 200.0 mg/kg/injection, schedule: Q04DX003 (ip), vehicle: saline with Tween-80
[3] = endpoint: mean survival time, dose: 400.0 mg/kg/injection, schedule: Q04DX003 (ip), vehicle: saline with Tween-80
[4] = endpoint: mean survival time, dose: 6.25 mg/kg/injection, schedule: Q04DX003 (ip), vehicle: saline with Tween-80
[5] = endpoint: mean survival time, dose: 12.5 mg/kg/injection, schedule: Q04DX003 (ip), vehicle: saline with Tween-80
[6] = endpoint: mean survival time, dose: 25.0 mg/kg/injection, schedule: Q04DX003 (ip), vehicle: saline with Tween-80

Measured: T/C

O=c1cc(-c2ccccc2)[nH]c2c1CCCC2
inactive: endpoint: median survival time, dose: 12.5 mg/kg/injection, schedule: Q01DX009 (ip), vehicle: saline with Tween-80 102 % of control | endpoint: median survival time, dose: 25.0 mg/kg/injection, schedule: Q01DX009 (ip), vehicle: saline with Tween-80 105 % of control | endpoint: median survival time, dose: 50.0 mg/kg/injection, schedule: Q01DX009 (ip), vehicle: saline with Tween-80 103 % of control and 108 % of control and 109 % of control | endpoint: median survival time, dose: 100.0 mg/kg/injection, schedule: Q01DX009 (ip), vehicle: saline with Tween-80 115 % of control and 116 % of control and 105 % of control | endpoint: median survival time, dose: 200.0 mg/kg/injection, schedule: Q01DX009 (ip), vehicle: saline with Tween-80 117 % of control and 120 % of control | endpoint: median survival time, dose: 400.0 mg/kg/injection, schedule: Q01DX009 (ip), vehicle: saline with Tween-80 90 % of control and 103 % of control

CN1CCCN(C)C1
inactive: endpoint: mean survival time, dose: 75.0 mg/kg/injection, schedule: Q01DX001 (ip), vehicle: saline 97 % of control | endpoint: mean survival time, dose: 150.0 mg/kg/injection, schedule: Q01DX001 (ip), vehicle: saline 97 % of control | endpoint: mean survival time, dose: 300.0 mg/kg/injection, schedule: Q01DX001 (ip), vehicle: saline 102 % of control

O=C(O)/C(Br)=C/c1ccccc1
inactive: endpoint: mean survival time, dose: 50.0 mg/kg/injection, schedule: Q01DX009 (ip), vehicle: saline with Tween-80 100 % of control | endpoint: mean survival time, dose: 100.0 mg/kg/injection, schedule: Q01DX009 (ip), vehicle: saline with Tween-80 90 % of control | [1] 103 % of control | endpoint: mean survival time, dose: 200.0 mg/kg/injection, schedule: Q01DX009 (ip), vehicle: saline with Tween-80 90 % of control | [2] 110 % of control | [3] 110 % of control

COc1cc2c(c(OC)c1OC)-c1ccc(SC)c(=O)cc1[C@@H](NC1OCC(O)C(O)C1O)CC2 (stereo partly drawn)
inactive: endpoint: mean survival time, dose: 6.0 mg/kg/injection, schedule: Q01DX009 (ip), vehicle: other 102 % of control | endpoint: mean survival time, dose: 12.0 mg/kg/injection, schedule: Q01DX009 (ip), vehicle: other 120 % of control | endpoint: mean survival time, dose: 12.5 mg/kg/injection, schedule: Q01DX009 (ip), vehicle: other 106 % of control | endpoint: mean survival time, dose: 25.0 mg/kg/injection, schedule: Q01DX009 (ip), vehicle: other 119 % of control | endpoint: mean survival time, dose: 100.0 mg/kg/injection, schedule: Q01DX009 (ip), vehicle: other 88 % of control

CCN(CC)c1ccc(N(C(C)=O)C(C)=O)cc1
inactive: [4] 91 % of control | [5] 95 % of control | [6] 93 % of control

CCOc1ccc(Br)cc1/C=C(\C#N)c1ccc([N+](=O)[O-])cc1
inactive: endpoint: mean survival time, dose: 0.1 mg/kg/injection, schedule: Q01DX009 (ip), vehicle: saline with Tween-80 98 % of control | endpoint: mean survival time, dose: 0.2 mg/kg/injection, schedule: Q01DX009 (ip), vehicle: saline with Tween-80 97 % of control | endpoint: mean survival time, dose: 0.39 mg/kg/injection, schedule: Q01DX009 (ip), vehicle: saline with Tween-80 93 % of control | endpoint: mean survival time, dose: 0.4 mg/kg/injection, schedule: Q01DX009 (ip), vehicle: saline with Tween-80 90 % of control | [5] 87 % of control | [6] 89 % of control | endpoint: mean survival time, dose: 50.0 mg/kg/injection, schedule: Q04DX003 (ip), vehicle: saline with Tween-80 86 % of control

COC1(c2ccccc2)c2ccccc2C(OC)(c2ccccc2)c2cc(Cl)ccc21 (stereo not drawn)
inactive: endpoint: mean survival time, dose: 100.0 mg/kg/injection, schedule: Q01DX001 (ip), vehicle: Klucel (hydroxypropylcellulose) (HPC) 96 % of control | endpoint: mean survival time, dose: 200.0 mg/kg/injection, schedule: Q01DX001 (ip), vehicle: Klucel (hydroxypropylcellulose) (HPC) 89 % of control

CCOC(=O)c1cc(=O)n(C)c2ccc(OCC)cc12
inactive: endpoint: mean survival time, dose: 100.0 mg/kg/injection, schedule: Q01DX009 (ip), vehicle: saline sonified 101 % of control | [1] 100 % of control | endpoint: mean survival time, dose: 200.0 mg/kg/injection, schedule: Q01DX009 (ip), vehicle: saline sonified 97 % of control | [2] 91 % of control | endpoint: mean survival time, dose: 400.0 mg/kg/injection, schedule: Q01DX009 (ip), vehicle: saline sonified 97 % of control | [3] 91 % of control

O=C(O)c1ccc([N+](=O)[O-])cc1.[Ag]
inactive: endpoint: mean survival time, dose: 3.13 mg/kg/injection, schedule: Q01DX009 (ip), vehicle: saline with Tween-80 102 % of control | endpoint: mean survival time, dose: 6.25 mg/kg/injection, schedule: Q01DX009 (ip), vehicle: saline with Tween-80 102 % of control | [4] 96 % of control | endpoint: mean survival time, dose: 12.5 mg/kg/injection, schedule: Q01DX009 (ip), vehicle: saline with Tween-80 98 % of control | [5] 96 % of control
